Test results as given in the NIST ThermoML archive (doi:10.1016/j.fluid.2013.03.030).
Numbers after ± are expanded uncertainties.

Tests used:
[1] = refractive index (other wavelength) (dimensionless); wn = mass fraction of the nth substance listed; settings: 298.15 K, 100 kPa, Liquid, Wavelength=589.3 nm, Digital Refractometer Mettler Toledo
[2] = wn = mass fraction of the nth substance listed; settings: 298.15 K, 100 kPa, Liquid; for viscosity: Capillary tube (Ostwald / Ubbelohde) method; for mass density: Vibrating tube method
[3] = xn = mol fraction of the nth substance listed; settings: 298.15 K, 100 kPa, Liquid, Sing-around technique in a fixed-path interferometer

SMILES: CCCC[P+](CCCC)(CCCC)CCCC.F[B-](F)(F)F [tetrabutylphosphonium tetrafluoroborate] + O
- refractive index ([1]; w1 = 0.001): 1.3326 ± 0.0011
- refractive index ([1]; w1 = 0.003): 1.3333 ± 0.0011
- refractive index ([1]; w1 = 0.005): 1.3341 ± 0.0011
- viscosity ([2]; w1 = 0.001): 0.901 ± 0.024 mPa·s
- viscosity ([2]; w1 = 0.003): 0.909 ± 0.024 mPa·s
- viscosity ([2]; w1 = 0.005): 0.914 ± 0.024 mPa·s
- mass density ([2]; w1 = 0.001): 997.16 ± 5.4 kg/m3
- mass density ([2]; w1 = 0.003): 998.67 ± 5.4 kg/m3
- mass density ([2]; w1 = 0.005): 1000.05 ± 5.4 kg/m3
- speed of sound ([3]; x1 = 0.001): 1498.9 ± 5.1 m/s
- speed of sound ([3]; x1 = 0.003): 1502.6 ± 5.1 m/s
- speed of sound ([3]; x1 = 0.005): 1507.5 ± 5 m/s
